Data taken from patent US11998767B2, “Hand sanitizers with improved aesthetics and skin-conditioning to encourage compliance with hand hygiene guidelines” (GOJO Industries, Inc., priority 2014, dated 2024).

How the values were obtained:
PPARδ = test: Skin barrier biomarker gene expression, real-time RT-PCR, keratinocyte monolayer; assay type: cell-based, human; conditions: gene expression level, keratinocytes treated 24 hours; Control C KGM 100%; concentration differs per example
Method: (§1) An in vitro model was employed, using monolayer human dermal keratinocytes culture (KGM). Two controls were tested: the medium and inflammatory cytokines interleukin (IL-1b).
(§2) Skin Barrier: • Biomarkers: ABCA12, Involucrin, PPARδ • Using different concentration of ingredients to treat the keratinocyte for 24 hours • Collect the cells and prepare total RNA from the treated cells • Using Real-time RT-PCT to detect different barrier function related biomarker's gene expression level • Comparative Benchmark: Vitamin D3 (cholecalciferol) in three different concentrations
PPARδ is Peroxisome proliferator-activated receptor, also known as NR1C2. It is a nuclear receptor that in humans is encoded by the PPARD gene. […] Generally, the higher expression, the better skin barrier function is.

ABCA12 = test: as above; assay type: cell-based, human; conditions: gene expression level, keratinocytes treated 24 hours; Control C KGM 100%; concentration differs per example
Method: as §1, §2
ABCA12 is also known as ATP-binding cassette transporter 12. It is a protein that in humans is encoded by the ABCA12 gene. The ABCA12 gene is active in some types of skin cells. The ABCA12 protein appears to be essential for normal development of the skin, which provides a barrier between the body and its surrounding environment. It plays an important role in transporting lipids (free fat acids) in cells that make up the outermost layer of skin (the epidermis). Generally, the higher expression, the better skin barrier function is.

Involucrin = test: as above; assay type: cell-based, human; conditions: gene expression level, keratinocytes treated 24 hours; Control C KGM 100%; concentration differs per example
Method: as §1, §2
Involucrin is a protein component of human skin. It's a biomarker for keratinocyte differentiation. In binding the protein loricrin, involucrin contributes to the formation of a cell envelope that protects corneocytes in the skin stratum corneum. The higher expression, the better skin barrier function is.

TNF-α = TNF-α ELISA, as IL-8 method, PMA-treated human dermal keratinocytes; assay type: cell-based; conditions: niacinamide in cell culture medium, co-treated with PMA; amount (wt. %) differs per example; Control A medium 100%, Control B PMA 0.0%
Excerpt: For Control A, human dermal keratinocytes are left untreated. No irritation is expected, and therefore Control A provides a baseline. For Control B, IL-8 is induced in human dermal keratinocytes by applying phorbol 12-myristate 13-acetate (PMA). For all other samples, the human dermal keratinocytes are co-treated with PMA and a composition containing the ingredient of interest. Decreased 11-8 expression reflects the ingredient's anti-irritation activity.
(§3) The following steps were followed: 1. Coat EIA high binding 96-well plate with IL-8 capture antibody overnight at room temperature. 2. Prepare all reagents, standard dilutions, and samples. 3. Wash the coated plate with 350 μL/well of washing buffer 4 times, then adding 300 μL/well of blocking solution incubating 1 hour at room temperature. 4. Repeat washing step with 350 μL/well of wash buffer (4 times). 5. Add 100 μL, of Standard, control, or sample to each well. Cover with a plate sealer, and incubate at room temperature for 2 hours. 6. Aspirate each well and wash, repeating the process 3 times for a total of 4 washes. 7. Add 100 μL, of detection IL-8 antibody to each well. Cover with a new plate sealer, and incubate at room temperature for 2 hours. 8. Aspirate and wash 4 times. 9. Add 100 μL, Biotin-Strepavidin conjugate to each well, incubating 20 minutes at room temperature. 10. Aspirate and wash 4 times. 11. Add 100 μL, substrate Solution to each well. Incubate at room temperature for 20 minutes, making sure to protect the wells from the light. 12. Add 50 μL, of Stop Solution to each well. Data collected—using a colorimeter, absorbance was measured at 450 nanometers (nm) within 30 minutes. Wavelength correction was set to 570 nm.
Samples were tested similarly to the method described above, except that TNF-α was used instead of IL-8.

[1] = test system: human dermal keratinocytes; test: MTT assay, cell viability of PMA-treated keratinocytes; assay type: cell-based; conditions: co-treated with PMA, amount (wt. %) differs per example, Control A medium 100%
Excerpt: The MTT assay is a colorimetric assay for assessing cell viability, cell proliferation, and/or cytotoxicity. NAD(P)H-dependent cellular oxidoreductase enzymes may, under defined conditions, reflect the number of viable cells present. These enzymes are capable of reducing the tetrazolium dye MTT 3-(4,5-dimethylthiazol-2-yl)-2,5-diphenyltetrazolium bromide to insoluble formazan, which has a purple color. MTT assay can also be used to measure cytotoxicity (loss of viable cells) or cytostatic activity (shift from proliferative to resting status) of potential medicinal agents and toxic materials.
Controls A and B described above for the IL-8 Assay were also employed in this test. The mitigating effect of the test samples on the effect of Control B on the keratinocytes was measured. More specifically, while Control B has a negative effect on cell viability, cell proliferation, and/or cytotoxicity, this mitigation of this negative effect was determined by measuring the reduction of MTT.
The following steps were followed: Once the liquid was removed from the wells for the IL-8 Assay described above, 100 μl/well of 0.5 mg/ml of MTT in phenol red-free DMEM (cell culture medium) was added into each of the 96-well plates. After incubating 1 hour at 37° C., all liquid was removed (MTT solution) from the wells of the culture plate. Then 100 μl of DMSO was added to each well to completely dissolve the purple product. Absorption was measured using a plate reader at 550 nm wavelength.

IL-8 = IL-8 ELISA, PMA-induced IL-8 in human dermal keratinocytes; assay type: cell-based; conditions: niacinamide in cell culture medium, co-treated with PMA; amount (wt. %) differs per example; Control A medium 100%, Control B PMA 0.0%
Excerpt: as §3, with “Interleukin 8 (IL-8) is a chemokine and proinflammatory cytokine produced by macrophages and other cell types such as epithelial cells. It is secreted from keratinocytes in skin in response to inflammatory stimuli. IL-8 is secreted and is an important mediator of the immune reaction in the innate immune system response. IL-8 overexpressed is a biomarker of skin irritation. […] No irritation is expected, and therefore Control A provides a baseline. […] Decreased 11-8 expression reflects the ingredient's anti-irritation activity. In order to carry out the test method, an assay kit was employed that was obtained from R&D Systems: Human CXCL8/IL-8 Duoset ELISA Development Kit. The” for “The”

| SMILES | PPARδ (PPARδ) [%] | ABCA12 (%) (ABCA12) | Involucrin (Involucrin) [%] | other results |
| --- | --- | --- | --- | --- |
| C=C1CC[C@H](O)C/C1=C/C=C1\CCC[C@]2(C)[C@@H]([C@H](C)CCCC(C)C)CC[C@@H]12 [Comparative 1, Vitamin D3 (cholecalciferol), reference compound] | 752 | 58 | 384 | – |
| NC(=O)c1cccnc1 [Example 28, Niacinamide] | – | – | – | TNF-α Inhibition (%) (TNF-α): 52.7% |
| NC(=O)c1cccnc1 [Example 35, Niacinamide] | 136 | 192 | 441 | – |
| NC(=O)c1cccnc1 [Example 25, Niacinamide] | – | – | – | TNF-α Inhibition (%) (TNF-α): 28.6% |
| NC(=O)c1cccnc1 [Example 30, Niacinamide] | – | – | – | Cell Viability (%) ([1]; niacinamide series): 95% |
| NC(=O)c1cccnc1 [Example 26, Niacinamide] | – | – | – | TNF-α Inhibition (%) (TNF-α): 45.6% |
| NC(=O)c1cccnc1 [Example 33, Niacinamide] | 82 | 41 | 156 | – |
| NC(=O)c1cccnc1 [Example 17, Niacinamide] | – | – | – | IL-8 Inhibition (%) (IL-8): 16.53% |
| NC(=O)c1cccnc1 [Example 20, Niacinamide] | – | – | – | IL-8 Inhibition (%) (IL-8): 28.85% |
| C=C1CC[C@H](O)C/C1=C/C=C1\CCC[C@]2(C)[C@@H]([C@H](C)CCCC(C)C)CC[C@@H]12 [Comparative 2, Vitamin D3 (cholecalciferol), reference compound] | 334 | 45 | 208 | – |
| NC(=O)c1cccnc1 [Example 21, Niacinamide] | – | – | – | IL-8 Inhibition (%) (IL-8): 33.20% |
| NC(=O)c1cccnc1 [Example 27, Niacinamide] | – | – | – | TNF-α Inhibition (%) (TNF-α): 45.1% |
| NC(=O)c1cccnc1 [Example 37, Niacinamide] | 378 | 447 | 1589 | – |
| NC(=O)c1cccnc1 [Example 31, Niacinamide] | – | – | – | Cell Viability (%) ([1]; niacinamide series): 99% |
| NC(=O)c1cccnc1 [Example 18, Niacinamide] | – | – | – | IL-8 Inhibition (%) (IL-8): 16.64% |
| NC(=O)c1cccnc1 [Example 34, Niacinamide] | 88 | 120 | 192 | – |
| NC(=O)c1cccnc1 [Example 23, Niacinamide] | – | – | – | TNF-α Inhibition (%) (TNF-α): 28.2% |
| NC(=O)c1cccnc1 [Example 16, Niacinamide] | – | – | – | IL-8 Inhibition (%) (IL-8): 0.0% |
| NC(=O)c1cccnc1 [Example 24, Niacinamide] | – | – | – | TNF-α Inhibition (%) (TNF-α): 29.6% |
| NC(=O)c1cccnc1 [Example 38, Niacinamide] | 863 | 499 | 1656 | – |
| NC(=O)c1cccnc1 [Example 36, Niacinamide] | 164 | 806 | 817 | – |
| NC(=O)c1cccnc1 [Example 22, Niacinamide] | – | – | – | IL-8 Inhibition (%) (IL-8): 32.04% |
| CCCCCCCCCCCCCC(=O)O[C@@H]1[C@@H](C)[C@@]2(O)[C@@H](C=C(CO)C[C@]3(O)C(=O)C(C)=C[C@@H]23)[C@@H]2C(C)(C)[C@]12OC(C)=O [Control B, phorbol 12-myristate 13-acetate, reference compound] | – | – | – | Cell Viability (%) ([1]; avenanthramide series): 95%; Cell Viability (%) ([1]; niacinamide series): 95% |
| NC(=O)c1cccnc1 [Example 19, Niacinamide] | – | – | – | IL-8 Inhibition (%) (IL-8): 20.86% |
| C=C1CC[C@H](O)C/C1=C/C=C1\CCC[C@]2(C)[C@@H]([C@H](C)CCCC(C)C)CC[C@@H]12 [Comparative 3, Vitamin D3 (cholecalciferol), reference compound] | 238 | 42 | 406 | – |
| NC(=O)c1cccnc1 [Example 29, Niacinamide] | – | – | – | Cell Viability (%) ([1]; niacinamide series): 97% |
| NC(=O)c1cccnc1 [Example 32, Niacinamide] | – | – | – | Cell Viability (%) ([1]; niacinamide series): 87% |
